Assay results taken from patent US11078202B2, “β-lactamase inhibitor and use thereof” (priority 2018, dated 2021).
Structures can show the parent of a compound that is named as a salt.

Tests used:
Assay type in all cases: cell-based
[1] = test system: Acinetobacter baumannii XNWB 0007; test: MIC assay of test compounds combined with imipenem (4 μg/mL); details: imipenem 4 μg/mL fixed
Outline: (§1)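 Antibiotic potentiation test: compound serially diluted, partner β-lactam at constant concentration, CAMHB medium, saline-standardised inoculum (OD600 0.1-0.15) diluted 300-fold. Incubated 16-20 h at 35±2 °C.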

[2] = test system: Klebsiella pneumoniae XNWB 0004; test: as above; details: imipenem 4 μg/mL fixed
Outline: as §1

[3] = test system: Klebsiella pneumoniae XNWB 0002; test: as above; details: imipenem 4 μg/mL fixed
Outline: as §1

[4] = test system: Klebsiella pneumoniae XNWB 0006; test: as above; details: imipenem 4 μg/mL fixed
Outline: as §1

[5] = test system: Pseudomonas aeruginosa XNWB 0008; test: as above; details: imipenem 4 μg/mL fixed
Outline: as §1

[6] = test system: Klebsiella pneumoniae XNWB 0003; test: as above; details: imipenem 4 μg/mL fixed
Outline: as §1

[7] = test system: Klebsiella pneumoniae XNWB 0005; test: as above; details: imipenem 4 μg/mL fixed
Outline: as §1

[8] = test system: Klebsiella pneumoniae XNWB 0001; test: as above; details: imipenem 4 μg/mL fixed
Outline: as §1

[9] = test system: Acinetobacter baumannii XNWB 0007; test: MIC assay of test compounds combined with ceftazidime (8 μg/mL); details: ceftazidime 8 μg/mL fixed
Outline: as §1

[10] = test system: Klebsiella pneumoniae XNWB 0004; test: as above; details: ceftazidime 8 μg/mL fixed
Outline: as §1

[11] = test system: Klebsiella pneumoniae XNWB 0002; test: as above; details: ceftazidime 8 μg/mL fixed
Outline: as §1

[12] = test system: Klebsiella pneumoniae XNWB 0006; test: as above; details: ceftazidime 8 μg/mL fixed
Outline: as §1

[13] = test system: Pseudomonas aeruginosa XNWB 0008; test: as above; details: ceftazidime 8 μg/mL fixed
Outline: as §1

[14] = test system: Klebsiella pneumoniae XNWB 0003; test: as above; details: ceftazidime 8 μg/mL fixed
Outline: as §1

[15] = test system: Klebsiella pneumoniae XNWB 0005; test: as above; details: ceftazidime 8 μg/mL fixed
Outline: as §1

[16] = test system: Klebsiella pneumoniae XNWB 0001; test: as above; details: ceftazidime 8 μg/mL fixed
Outline: as §1

[17] = test system: Enterobacter aerogenes XNWB 0011; test: MIC assay of test compounds combined with ampicillin (8 μg/mL); details: ampicillin 8 μg/mL fixed
Method: (§2) The bacterial strains used for the minimum inhibitory concentration (MIC) test were frozen in a −80° C. ULT freezer and thawed 2 days before use. A small amount of frozen bacterial strains were scraped using a sterile inoculating loop, streaked onto a TSA solid culture dish for inoculation, and then cultured for 20-24 h at 35±2° C. in a normal atmospheric environment.
(§3) 5-10 colonies with similar morphology were picked from the culture dish using a sterile inoculating loop and then re-streaked onto a suitable solid culture dish. Then the dish was placed into a normal incubator for culture for 20-24 h at 35±2° C.
(§4) 5-10 single bacterial colonies were picked from the solid culture dish, resuspended in 500 μL of 0.9% NaCl, and adjusted to an OD600 of 0.1-0.15 with a spectrophotometer.
(§5) The bacteria were then diluted 300-fold with 1.1×CAMHB.
(§6) Test compounds of columns A-H: having a highest final test concentration of 64 μg/mL or 32 μg/mL, 2-fold diluted.
(§7) Dilution of test compounds: All test compounds were dissolved and diluted in dimethylsulfoxide (DMSO). 170 μL of 3.2 mg/mL (50*64 μg/mL) compound was transferred to wells (A1-H1) of column 1 of a dilution master plate and then 85 μL of DMSO was transferred to wells of other columns. Each compound was diluted 2-fold in sequence (i.e., 85 μL of compound was pipetted from column 1 into column 2 and mixed uniformly, 85 μL of compound was pipetted from column 2 into column 3 and mixed uniformly, then 85 μL of compound was pipetted from column 3 into column 4 and mixed uniformly, and so on until the dilution was done in column 11).
(§8) Preparation of an additive of ampicillin: Ampicillin was dissolved in ddH2O. 30 μL of 100 μg/mL (12.5×8 μg/mL) ampicillin was transferred to columns 1-11 of an additive plate, followed by the addition of 30 μL of ddH2O to column 12.
(§9) 2 μL of each compound in the dilution master plate of the test compounds was transferred to the corresponding well of the assay plates. In the mean time, 2 μL of 100% DMSO was transferred to the compound-free wells (GC and SC wells). (1) 8 μL of imipenem in the additive plate of imipenem was transferred to the corresponding wells of the assay plates; (2) 8 μL of ceftazidime in the additive plate of ceftazidime was transferred to the corresponding wells of the assay plates; (3) 8 μL of ampicillin in the additive plate of ampicillin was transferred to the corresponding wells of the assay plates.
(§10) 90 μL of corresponding bacterial inocula were added to wells (except for SC wells) of the assay plates.
(§11) After addition, the 6 assay plates were covered by sterile covers. The mixtures in the assay plates were centrifuged by a centrifuge at 1000 rpm for 30 s, and mixed uniformly by oscillating with a microplate oscillator at 800 rpm for 1 min, and then cultured in a common incubator for 16-20 h at 35±2° C.
(§12) The minimum inhibitory concentration of each compound was recorded by reference to guidelines from the Clinical and Laboratory Standards Institute.
(§13) The minimum inhibitory concentrations of the compounds of the present invention and antibiotics (imipenem, ceftazidime, and ampicillin) against 11 strains of bacteria were tested in this study by reference to the medium microdilution method as indicated by the Clinical and Laboratory Standards Institute. The effect of the test compounds in combination with imipenem, ceftazidime, and ampicillin was also tested. Compounds were diluted two-fold in 96-well plates from the highest detection concentration of 64 μg/mL. The test compounds were tested in combination with a fixed concentration of imipenem (4 μg/mL), ceftazidime (8 μg/mL), and ampicillin (8 μg/mL). The bacterial inocula in the assay plates were resuscitated from TSA and diluted in CAMHB, while growth controls (GC wells) and sterile controls (SC wells) were set up in the assay plates. […]

[18] = test system: Escherichia coli XNWB 0010; test: as above; details: ampicillin 8 μg/mL fixed
Method: as §2, §3, §4, §5, §6, §7, §8, §9, §10, §11, §12, §13

[19] = test system: Escherichia coli XNWB 0009; test: as above; details: ampicillin 8 μg/mL fixed
Method: as §2, §3, §4, §5, §6, §7, §8, §9, §10, §11, §12, §13

## N=C(N)NCC1(c2nnc([C@@H]3CC4(CC4)[C@@H]4CN3C(=O)N4OS(=O)(=O)O)o2)CC1 [Example 13, (1R,4S)-4-(5-(1-(guanidinomethyl)cyclopropyl)-1,3,4-oxadiazol-2-yl)-6-oxo-5,7-diazaspiro[bicyclo[3.2.1]octane-2,1′-cyclopropan]-7-yl sulfate]
[1]
  The minimum concentration of test compounds combined with imipenem (4 μg/mL) for bacteriostasis: C (C: 16-128 μg/mL)
[2]
  The minimum concentration of test compounds combined with imipenem (4 μg/mL) for bacteriostasis: A (A: <8 μg/mL)
[3]
  The minimum concentration of test compounds combined with imipenem (4 μg/mL) for bacteriostasis: A (A: <8 μg/mL)
[4]
  The minimum concentration of test compounds combined with imipenem (4 μg/mL) for bacteriostasis: A (A: <8 μg/mL)
[5]
  The minimum concentration of test compounds combined with imipenem (4 μg/mL) for bacteriostasis: A (A: <8 μg/mL)
[6]
  The minimum concentration of test compounds combined with imipenem (4 μg/mL) for bacteriostasis: A (A: <8 μg/mL)
[7]
  The minimum concentration of test compounds combined with imipenem (4 μg/mL) for bacteriostasis: A (A: <8 μg/mL)
[8]
  The minimum concentration of test compounds combined with imipenem (4 μg/mL) for bacteriostasis: A (A: <8 μg/mL)
[9]
  The minimum concentration of test compounds combined with ceftazidime (8 μg/mL) for bacteriostasis: B (B: 8-16 μg/mL)
[10]
  The minimum concentration of test compounds combined with ceftazidime (8 μg/mL) for bacteriostasis: B (B: 8-16 μg/mL)
[11]
  The minimum concentration of test compounds combined with ceftazidime (8 μg/mL) for bacteriostasis: A (A: <8 μg/mL)
[12]
  The minimum concentration of test compounds combined with ceftazidime (8 μg/mL) for bacteriostasis: A (A: <8 μg/mL)
[13]
  The minimum concentration of test compounds combined with ceftazidime (8 μg/mL) for bacteriostasis: B (B: 8-16 μg/mL)
[14]
  The minimum concentration of test compounds combined with ceftazidime (8 μg/mL) for bacteriostasis: A (A: <8 μg/mL)
[15]
  The minimum concentration of test compounds combined with ceftazidime (8 μg/mL) for bacteriostasis: A (A: <8 μg/mL)
[16]
  The minimum concentration of test compounds combined with ceftazidime (8 μg/mL) for bacteriostasis: A (A: <8 μg/mL)
[17]
  The minimum concentration of test compounds combined with ampicillin (8 μg/mL) for bacteriostasis: A (A: <8 μg/mL)
[18]
  The minimum concentration of test compounds combined with ampicillin (8 μg/mL) for bacteriostasis: A (A: <8 μg/mL)
[19]
  The minimum concentration of test compounds combined with ampicillin (8 μg/mL) for bacteriostasis: A (A: <8 μg/mL)

## O=C1N2C[C@H](N1OS(=O)(=O)O)C1(CC1)C[C@H]2c1cc(C2CCNC2)on1 (stereo partly drawn) [Example 45, (1R,4S)-6-oxo-4-(5-(pyrrolidin-3-yl)isoxazol-3-yl)-5,7-diazaspiro[bicyclo[3.2.1]octane-2,1′-cyclopropan]-7-yl sulfate]
[1]
  The minimum concentration of test compounds combined with imipenem (4 μg/mL) for bacteriostasis: C (C: 16-128 μg/mL)
[2]
  The minimum concentration of test compounds combined with imipenem (4 μg/mL) for bacteriostasis: A (A: <8 μg/mL)
[3]
  The minimum concentration of test compounds combined with imipenem (4 μg/mL) for bacteriostasis: A (A: <8 μg/mL)
[4]
  The minimum concentration of test compounds combined with imipenem (4 μg/mL) for bacteriostasis: A (A: <8 μg/mL)
[5]
  The minimum concentration of test compounds combined with imipenem (4 μg/mL) for bacteriostasis: A (A: <8 μg/mL)
[6]
  The minimum concentration of test compounds combined with imipenem (4 μg/mL) for bacteriostasis: A (A: <8 μg/mL)
[7]
  The minimum concentration of test compounds combined with imipenem (4 μg/mL) for bacteriostasis: A (A: <8 μg/mL)
[8]
  The minimum concentration of test compounds combined with imipenem (4 μg/mL) for bacteriostasis: A (A: <8 μg/mL)
[9]
  The minimum concentration of test compounds combined with ceftazidime (8 μg/mL) for bacteriostasis: C (C: 16-128 μg/mL)
[10]
  The minimum concentration of test compounds combined with ceftazidime (8 μg/mL) for bacteriostasis: B (B: 8-16 μg/mL)
[11]
  The minimum concentration of test compounds combined with ceftazidime (8 μg/mL) for bacteriostasis: A (A: <8 μg/mL)
[12]
  The minimum concentration of test compounds combined with ceftazidime (8 μg/mL) for bacteriostasis: A (A: <8 μg/mL)
[13]
  The minimum concentration of test compounds combined with ceftazidime (8 μg/mL) for bacteriostasis: B (B: 8-16 μg/mL)
[14]
  The minimum concentration of test compounds combined with ceftazidime (8 μg/mL) for bacteriostasis: A (A: <8 μg/mL)
[15]
  The minimum concentration of test compounds combined with ceftazidime (8 μg/mL) for bacteriostasis: A (A: <8 μg/mL)
[16]
  The minimum concentration of test compounds combined with ceftazidime (8 μg/mL) for bacteriostasis: A (A: <8 μg/mL)
[17]
  The minimum concentration of test compounds combined with ampicillin (8 μg/mL) for bacteriostasis: A (A: <8 μg/mL)
[18]
  The minimum concentration of test compounds combined with ampicillin (8 μg/mL) for bacteriostasis: A (A: <8 μg/mL)
[19]
  The minimum concentration of test compounds combined with ampicillin (8 μg/mL) for bacteriostasis: A (A: <8 μg/mL)
